Earlier results in patent publication US9828409B2, “Bridged-cyclo-ProTides as prodrugs of therapeutic nucleosides and nucleotides” (priority 2014, dated 2017).

Settings: patients in clinical trials

level of liver enzymes in patients: elevated level of liver enzymes
SMILES: CCOc1nc(N)nc2c1ncn2[C@@H]1O[C@@H]2COP(=O)(OC(C)C)O[C@H]2[C@@]1(C)F (stereo partly shown) [PSI-352938]
